The values below are quoted from earlier work in patent US8084444B2, “Treatment of dermatitis with dehydroepiandrosterone-glucocorticoid combinations” (RxDino, LLC, priority 2004, dated 2011).

For this data set the following is noted: equivalent in glucocorticoid potency.
`C[C@]12CCC(=O)C=C1CC[C@@H]1[C@@H]2C(=O)C[C@@]2(C)[C@H]1CC[C@]2(O)C(=O)CO` [Cortisone]: the “Approximate Glucocorticoid Dose Equivalent” value is on record as approximately 25 mg.
As for `C[C@]12CCC(=O)C=C1CC[C@@H]1[C@@H]2[C@@H](O)C[C@@]2(C)[C@H]1CC[C@]2(O)C(=O)CO` [Hydrocortisone], the “Approximate Glucocorticoid Dose Equivalent” value is approximately 20 mg.
Turning to `C[C@]12C=CC(=O)C=C1CC[C@@H]1[C@@H]2[C@@H](O)C[C@@]2(C)[C@H]1CC[C@]2(O)C(=O)CO` [Prednisolone], the “Approximate Glucocorticoid Dose Equivalent” value is on record as approximately 5 mg.
With `C[C@]12C=CC(=O)C=C1CC[C@H]1[C@@H]3C[C@@H](O)[C@](O)(C(=O)CO)[C@@]3(C)C[C@H](O)[C@@]12F` [Triamcinolone], the “Approximate Glucocorticoid Dose Equivalent” value is approximately 0.8 mg.
